# Test results reported in US8598173B2, “1-[(6,7-substituted alkoxyquinoxalinyl)aminocarbonyl]-4-(hetero)arylpiperazine derivatives for treating tumors” (Korea Research Institute of Chemical Technology, priority 2004, dated 2013).
# Read-outs that look alike come from different tables or passages of the source.
# How the values were obtained:
# [1] = system: MDA-MB-231 (breast); assay: Cell growth inhibition assay (SRB), MDA-MB-231; format: cell-based, human; details: Homo sapiens, SRB method, 96 hours incubation
# Experimental: (§1) OVCAR-3, MCF-7, PC3, HepG2, A549, HT-29 and MKN-45 were grown in RPMI1640 medium (Invitrogen, Carlsbad, Calif.) supplemented with 10% fetal bovine serum (‘FBS’), 1 mM sodium pyruvate, 10 mM HEPES and 100 U/ml penicillin and […] streptomycin (‘P/S’). MDA-MB-231, HCT116, UMRC2, Caki-1, PANC-1 and HEK293 cells were maintained in Dulbecco's modified Eagle's medium (‘DMEM’, Invitrogen) supplemented with 10% FBS, P/S, 10 mM HEPES and 2 mM L-glutamine. HUVEC was maintained in M199 supplemented with basic fibroblast growth factor (‘bFGF’) […] and FBS 20%. All cells were incubated at 37° C. under humidified 5% CO2.
# (§2) The growth inhibition of the substituted quinoxalin-piperazine compounds against a variety of human tumor cells was evaluated. The relative importance of particular substituent groups on the compounds was also studied. The substituted piperazine derivative compounds, prepared as described above, were tested, along with DMSO as a control.
# (§3) The growth inhibition assay of various compounds against human tumor cell lines was performed using the Sulforhodamine B (‘SRB’) method (Skehan et al., J. National Cancer Institute, 1990, 82, 1107-1112). […] Triplicate wells were used for each treatment. The cells were incubated with the various compounds for 96 hours at 37° C. in a humidified 5% CO2 atmosphere. After 96-hour incubation, cells were fixed with 10% trichloroacetic acid (‘TCA’), incubated for 1 hour at 4° C., and washed 3 times with tap water. Subsequently cells were stained with 0.4% sulforhodamine B in 1% acetic acid for 30 minutes, washed 4 times with 1% acetic acid, and air-dried again. After 5 minutes agitation in 10 mM Tris solution, the absorbance of each well was measured at 530 nm using Benchmark Plus Microplate reader (Bio-Rad Laboratories, Hercules, Calif.).
# (§4) To translate the OD530 values into the number of live cells in each well, the OD530 values were compared to those on standard OD530-versus-cell number curves generated for each cell line. The percent survival was calculated using the formula: % Survival=live cell number[test]/live cell number[control]×100
# (§5) The IC50 values were calculated by non-linear regression analysis.
# [2] = system: UMRC2 (kidney); assay: Cell growth inhibition assay (SRB), UMRC2; format: cell-based, human; details: Homo sapiens, SRB method, 96 hours incubation
# Experimental: as §1, §2, §3, §4, §5
# [3] = system: PANC-1 (pancreas); assay: Cell growth inhibition assay (SRB), PANC-1; format: cell-based, human; details: Homo sapiens, SRB method, 96 hours incubation
# Experimental: as §1, §2, §3, §4, §5
# [4] = system: MKN-45 (stomach); assay: Cell growth inhibition assay (SRB), MKN-45; format: cell-based; details: Homo sapiens, SRB method, 96 hours incubation
# Experimental: as §1, §2, §3, §4, §5
# [5] = system: HepG2 (liver); assay: Cell growth inhibition assay (SRB), HepG2; format: cell-based; details: Homo sapiens, SRB method, 96 hours incubation
# Experimental: as §1, §2, §3, §4, §5
# [6] = system: HT-29 (colon); assay: Cell growth inhibition assay (SRB), HT-29; format: cell-based; details: Homo sapiens, SRB method, 96 hours incubation
# Experimental: as §1, §2, §3, §4, §5
# [7] = system: HCT116 (colon); assay: Cell growth inhibition assay (SRB), HCT116; format: cell-based; details: Homo sapiens, HCT-116, SRB method, 96 hours incubation
# Experimental: as §1, §2, §3, §4, §5
# [8] = system: PC3 (prostate); assay: Cell growth inhibition assay (SRB), PC3; format: cell-based; details: Homo sapiens, SRB method, 96 hours incubation
# Experimental: as §1, §2, §3, §4, §5
# [9] = system: OVCAR-3 (ovary); assay: Cell growth inhibition assay (SRB), OVCAR-3; format: cell-based; details: Homo sapiens, SRB method, 96 hours incubation
# Experimental: as §1, §2, §3, §4, §5
# [10] = system: MCF-7 (breast, hormone-dependent); assay: Cell growth inhibition assay (SRB), MCF-7; format: cell-based; details: Homo sapiens, MCF7, SRB method, 96 hours incubation
# Experimental: as §1, §2, §3, §4, §5
# [11] = system: Caki-1 (kidney); assay: Cell growth inhibition assay (SRB), Caki-1; format: cell-based; details: Homo sapiens, SRB method, 96 hours incubation
# Experimental: as §1, §2, §3, §4, §5
# [12] = system: A549 (lung); assay: Cell growth inhibition assay (SRB), A549; format: cell-based; details: Homo sapiens, SRB method, 96 hours incubation
# Experimental: as §1, §2, §3, §4, §5
# [13] = MDA-MB-231, read-out: Inhibition of cell growth (IC50, μM) by quinoxaline-piperazine compounds against human cancer cell lines: MDA-MB-231
# [14] = UMRC2, read-out: Inhibition of cell growth (IC50, μM) by quinoxaline-piperazine compounds against human cancer cell lines: UMRC2
# [15] = PANC-1, read-out: Inhibition of cell growth (IC50, μM) by quinoxaline-piperazine compounds against human cancer cell lines: PANC-1
# [16] = MKN-45, MKN45, read-out: Inhibition of cell growth (IC50, μM) by quinoxaline-piperazine compounds against human cancer cell lines: MKN45
# [17] = HepG2, read-out: Inhibition of cell growth (IC50, μM) by quinoxaline-piperazine compounds against human cancer cell lines: HepG2
# [18] = HT-29, HT29, read-out: Inhibition of cell growth (IC50, μM) by quinoxaline-piperazine compounds against human cancer cell lines: HT29
# [19] = HCT116, read-out: Inhibition of cell growth (IC50, μM) by quinoxaline-piperazine compounds against human cancer cell lines: HCT116
# [20] = PC-3, read-out: Inhibition of cell growth (IC50, μM) by quinoxaline-piperazine compounds against human cancer cell lines: PC-3
# [21] = OVCAR-3, OVCAR3, read-out: Inhibition of cell growth (IC50, μM) by quinoxaline-piperazine compounds against human cancer cell lines: OVCAR3
# [22] = read-out: Inhibition of cell growth (IC50, μM) by quinoxaline-piperazine compounds against human cancer cell lines: MCF7
# [23] = Caki-1, read-out: Inhibition of cell growth (IC50, μM) by quinoxaline-piperazine compounds against human cancer cell lines: Caki-1
# [24] = A549, read-out: Inhibition of cell growth (IC50, μM) by quinoxaline-piperazine compounds against human cancer cell lines: A549
# [25] = MDA-MB-231 (breast), read-out: IC50, MDA-MB-231
# [26] = UMRC2 (kidney), read-out: IC50, UMRC2
# [27] = PANC-1 (pancreas), read-out: IC50, PANC-1
# [28] = MKN-45 (stomach), read-out: IC50, MKN-45
# [29] = HepG2 (liver), read-out: IC50, HepG2
# [30] = HT-29 (colon), read-out: IC50, HT-29
# [31] = HCT116 (colon), read-out: IC50, HCT116
# [32] = PC3 (prostate), read-out: IC50, PC3
# [33] = OVCAR-3 (ovary), read-out: IC50, OVCAR-3
# [34] = MCF-7 (breast, hormone-dependent), read-out: IC50, MCF-7
# [35] = Caki-1 (kidney), read-out: IC50, Caki-1
# [36] = A549 (lung), read-out: IC50, A549
Structure (SMILES),"IC50 [1, 13] [µM]","IC50 [3, 15] [µM]","IC50 [4, 16] [µM]","IC50 [5, 17] [µM]","IC50 [6, 18] [µM]","IC50 [7, 19] [µM]","IC50 [8, 20] [µM]","IC50 [9, 21] [µM]","IC50 [10, 22] [µM]","IC50 [12, 24] [µM]","IC50 [1, 25] [µM]","IC50 [3, 27] [µM]","IC50 [7, 31] [µM]","IC50 [9, 33] [µM]","IC50 [10, 34] [µM]","IC50 [12, 36] [µM]","IC50 [2, 14] [µM]","IC50 [11, 23] [µM]","IC50 [2, 26] [µM]","IC50 [11, 35] [µM]",further results
"COc1cc(OC)cc(N2CCN(C(=O)Nc3nc4cc(F)ccc4nc3OC)CC2)c1 [Compound 5, 1-[(6-Fluoro-2-methoxyquinoxalin-3-yl)aminocarbonyl]-4-(3,5-dimethoxyphenyl)piperazine]",0.012,0.021,0.02,0.019,0.021,0.019,0.021,0.012,0.025,0.021,–,–,–,–,–,–,0.013,0.011,–,–,–
"COc1cc(OC)cc(N2CCN(C(=O)Nc3nc4cc(C)ccc4nc3OC)CC2)c1 [Compound 47, 1-[(2-Methoxy-6-methylquinoxalin-3-yl)aminocarbonyl]-4-(3,5-dimethoxyphenyl)piperazine]",0.032,0.07,0.04,0.045,0.048,0.047,0.063,0.023,0.063,0.055,–,–,–,–,–,–,0.039,0.029,–,–,–

# Second part, led by results:
"IC50 [1, 13] [µM]","IC50 [3, 15] [µM]","IC50 [4, 16] [µM]","IC50 [5, 17] [µM]","IC50 [6, 18] [µM]","IC50 [7, 19] [µM]","IC50 [8, 20] [µM]","IC50 [9, 21] [µM]","IC50 [10, 22] [µM]","IC50 [12, 24] [µM]","IC50 [1, 25] [µM]","IC50 [3, 27] [µM]","IC50 [7, 31] [µM]","IC50 [9, 33] [µM]","IC50 [10, 34] [µM]","IC50 [12, 36] [µM]",Structure (SMILES),"IC50 [2, 14] [µM]","IC50 [11, 23] [µM]","IC50 [2, 26] [µM]","IC50 [11, 35] [µM]",further results
0.05,0.098,0.064,0.063,0.079,0.068,0.076,0.042,0.076,0.073,–,–,–,–,–,–,"COc1cc(OC)cc(N2CCN(C(=O)Nc3nc4cc(Cl)ccc4nc3OC)CC2)c1 [Compound 26, 1-[(6-Chloro-2-methoxyquinoxalin-3-yl)aminocarbonyl]-4-(3,5-dimethoxyphenyl)piperazine]",0.065,0.053,–,–,–
–,–,–,–,–,–,–,–,–,–,0.18,0.28,0.23,0.13,0.21,0.24,"COc1cc(OC)cc(N2CCN(C(=O)Nc3nc4ccc(Cl)cc4nc3OC)CC2)c1 [Compound 110, 1-[(6-Chloro-3-methoxyquinoxalin-2-yl)aminocarbonyl]-4-(3,5-dimethoxyphenyl)piperazine]",–,–,0.21,0.18,"IC50 [4, 28]: 0.2 µM; IC50 [5, 29]: 0.21 µM; IC50 [6, 30]: 0.25 µM; IC50 [8, 32]: 0.27 µM"
–,–,–,–,–,–,–,–,–,–,0.17,0.24,0.48,0.36,0.6,0.75,"COc1nc2cc(Cl)ccc2nc1NC(=O)N1CCN(c2cccc(Cl)c2)CC1 [Compound 120, 1-[(6-Chloro-3-methoxyquinoxalin-2-yl)aminocarbonyl]-4-(3-chlorophenyl)piperazine]",–,–,0.17,0.4,–
–,–,–,–,–,–,–,–,–,–,0.16,0.36,0.25,0.14,0.24,0.24,"COc1cc(OC)cc(N2CCN(C(=O)Nc3nc4ccc(C)cc4nc3OC)CC2)c1 [Compound 131, 1-[(3-Methoxy-6-methylquinoxalin-2-yl)aminocarbonyl]-4-(3,5-dimethoxyphenyl)piperazine]",–,–,0.23,0.19,"IC50 [4, 28]: 0.22 µM; IC50 [5, 29]: 0.23 µM; IC50 [6, 30]: 0.34 µM; IC50 [8, 32]: 0.35 µM"
